According to patent publication US5164507A, “Antibiotic pyridine compound” (Meiji Seika Kaisha Ltd., priority 1990, dated 1992):
Where a name gives a salt, the structure may show the parent alone.

What was measured:
Solubility = assay type: physicochemical
eumycetes = experiment: antimicrobial activity (Table 1, summary); assay type: cell-based; details: against certain kinds of eumycetes, from Table 1
Description: (§1) Minimum growth inhibitory concentrations (MIC) of a hydrochloride of substance SF 2698 on various test microorganisms are shown in Table 1 below.

[1] = system: Candida glabrata IFO-0622; experiment: MIC (minimum growth inhibitory concentration) on test microorganisms; assay type: cell-based; details: Nakaseomyces glabratus, IFO0622
Description: as §1

Candida albicans M9001 = experiment: as above; assay type: cell-based
Description: as §1

[2] = system: Candida glabrata IFO-0005; experiment: as above; assay type: cell-based; details: Nakaseomyces glabratus, IFO0005
Description: as §1

Candida utilis M9007 = experiment: as above; assay type: cell-based; details: Williopsis jadinii
Description: as §1

[3] = system: Cryptococcus neoformans M9010; experiment: as above; assay type: cell-based
Description: as §1

mice = experiment: toxicity by intravenous injection to mice; assay type: in vivo; details: dose of 100 mg/kg
Description: Further, toxicity of a hydrochloride of substance SF2698 was examined by administering to mice the test compound by intravenous injection.

In the case of N=C1C=CCC(C(=O)O)N1 (stereo not shown) [hydrochloride of substance SF 2698], the Solubility (Solubility; in methanol) is reported as “soluble”, the Solubility (Solubility; in organic solvents, e.g., ethyl acetate) is reported as “insoluble” and the Solubility (Solubility; in water) is reported as “soluble”. The antimicrobial activity (eumycetes) was “exhibits antimicrobial activity against certain kinds of eumycetes”, the MIC [1] was 0.78 µg/mL and the MIC (Candida albicans M9001) was > 100 µg/mL. The MIC [2] was 0.2 µg/mL, the MIC (Candida utilis M9007) was 12.5 µg/mL and the MIC [3] was > 100 µg/mL. For the same compound, the case of death (mice) was “no case of death”.
